The source of these data is US20070155757A1, “Use of pyrimidine compounds in the preparation of parasiticides” (priority 2004, published 2007).

For the molecule `Nc1c(Oc2cccc(F)c2)ncnc1Oc1cccc(F)c1` [Compound 1.4, 4,6-bis-(3-fluorophenoxy)-pyrimidin-5-ylamine], the melting point (usually the temperature, or range, at which the solid turns liquid) was 110 to 112 °C. On to `Cc1cc(Oc2ncnc(Oc3ccc(F)c(C)c3)c2N)ccc1F` [Compound 1.20, 4,6-bis-(4-fluoro-3-methylphenoxy)-pyrimidin-5-ylamine], for which the melting point was in the range of 155 to 156 °C. The value for `NC(=O)Cc1c(Oc2ccc(F)c(C(F)(F)F)c2)ncnc1Oc1ccc(F)c(C(F)(F)F)c1` [Compound 1.29, [4,6-bis-(4-fluoro-3-(trifluoromethyl)phenoxy)]-pyrimidin-5-yl-acetamide] was 122 to 124 °C.
